Patent US20150289518A1, “COMPOSITION COMPRISING A BIOLOGICAL CONTROL AGENT AND AN INSECTICIDE” (BAYER CROPSCIENCE AG, priority 2012, published 2015)

Experiments:
Type in all cases: in vivo
[1] = tested on: mustard beetle larvae (Phaedon cochleariae); assay: Phaedon cochleariae spray test; conditions: mortality, Chinese cabbage leaf disks sprayed
Experimental: (§1) Formula for the efficacy of the combination of two compounds • The expected efficacy of a given combination of two compounds is calculated as follows (see Colby, S. R., “Calculating Synergistic and antagonistic Responses of Herbicide Combinations”, Weeds 15, pp. 20-22, 1967):
(§2) • X is the efficacy expressed in % mortality of the untreated control for test compound A at a concentration of m ppm respectively m g/ha, • Y is the efficacy expressed in % mortality of the untreated control for test compound B at a concentration of n ppm respectively n g/ha, • E is the efficacy expressed in % mortality of the untreated control using the mixture of A and B at m and n ppm respectively m and n g/ha,
(§3) If the observed insecticidal efficacy of the combination is higher than the one calculated as “E”, then the combination of the two compounds is more than additive, i.e., there is a synergistic effect.
• Solvent: 78.0 parts by weight of acetone • 1.5 parts by weight of dimethylformamide • Emulsifier: alkylaryl polyglycol ether […]
(§4) After the specified period of time, mortality in % is determined. […] The mortality values determined thus are recalculated using the Colby-formula (see sheet 1).

[2] = tested on: green peach aphid (Myzus persicae); assay: Myzus persicae spray test; conditions: mortality
Experimental: as §1, §2, §3
• Solvent: 78.0 parts by weight acetone • 1.5 parts by weight dimethylformamide • Emulsifier: alkylaryl polyglycol ether […]
as §4

[3] = tested on: southern root-knot nematode (Meloidogyne incognita); assay: Meloidogyne incognita test (MELGIN); conditions: nematicidal activity by gall formation on salad roots, 0.08 ppm
Experimental: as §1, §2, §3
• Solvent: 125.0 parts by weight of acetone
To produce a suitable preparation of active compound, 1 part by weight of active compound is mixed with the stated amount of solvent, and the concentrate is diluted with water to the desired concentration. […]
After the specified period the nematicidal activity is determined on the basis of the percentage of gall formation. […] The values determined thus are recalculated using the Colby-formula (see sheet 1).

Row | Compound | Efficacy in % after 6d ([1]; 0.8 g ai/ha) | Efficacy in % after 6d ([2]; 0.8 g ai/ha, test 2, 6 d) | Efficacy in % after 1d ([2]; 4 g ai/ha, test 1, 1 d) | Efficacy in % after 14d [3] | Efficacy in % after 6d ([1]; 0.2 g ai/ha)
1 | N#Cc1nn(-c2c(Cl)cc(C(F)(F)F)cc2Cl)c(N)c1[S+]([O-])C(F)(F)F (centres unmarked) [Fipronil] | 0% | 0% | 0% | – | –
2 | Abamectin | – | – | – | 0% | 0%
